Assay results taken from ChEMBL document CHEMBL4507319 (2021).

How the values were obtained:
[1] = target: T1, Serine/threonine-protein kinase D2 (Homo sapiens) (UniProt Q9BZL6); assay: PKD2(h) Eurofins kinase panel; settings: Compound concentration 1.0 uM
T1 sequence (whole entry): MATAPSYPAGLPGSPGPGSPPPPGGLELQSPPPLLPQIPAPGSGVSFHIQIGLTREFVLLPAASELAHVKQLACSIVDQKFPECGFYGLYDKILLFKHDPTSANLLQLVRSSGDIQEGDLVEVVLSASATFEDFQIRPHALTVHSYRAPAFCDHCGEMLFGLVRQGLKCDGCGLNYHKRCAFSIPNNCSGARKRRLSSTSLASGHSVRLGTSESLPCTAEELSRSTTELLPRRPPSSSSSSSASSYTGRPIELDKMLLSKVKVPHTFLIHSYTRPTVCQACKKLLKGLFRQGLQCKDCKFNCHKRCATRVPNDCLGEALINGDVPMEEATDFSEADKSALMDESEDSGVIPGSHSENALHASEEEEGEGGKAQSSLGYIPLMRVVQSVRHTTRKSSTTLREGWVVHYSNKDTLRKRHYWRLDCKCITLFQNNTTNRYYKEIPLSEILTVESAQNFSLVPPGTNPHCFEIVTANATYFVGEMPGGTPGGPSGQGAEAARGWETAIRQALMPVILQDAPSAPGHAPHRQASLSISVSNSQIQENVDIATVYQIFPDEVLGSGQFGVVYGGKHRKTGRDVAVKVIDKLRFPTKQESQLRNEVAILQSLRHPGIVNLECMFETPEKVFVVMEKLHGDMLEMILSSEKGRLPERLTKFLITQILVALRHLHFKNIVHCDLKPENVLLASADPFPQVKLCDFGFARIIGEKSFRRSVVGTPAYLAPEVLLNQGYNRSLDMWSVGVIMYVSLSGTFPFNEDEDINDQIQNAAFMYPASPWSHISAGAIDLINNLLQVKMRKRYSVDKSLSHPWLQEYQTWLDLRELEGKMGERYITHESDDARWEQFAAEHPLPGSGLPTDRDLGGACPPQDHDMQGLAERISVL

[2] = target: Casein kinase I isoform gamma-3 (Homo sapiens) (UniProt Q9Y6M4); assay: CK1gamma3(h) Eurofins kinase panel; settings: Compound concentration 1.0 uM
Sequence of Casein kinase I isoform gamma-3 (Homo sapiens) (Q9Y6M4 whole entry, looked up, canonical isoform): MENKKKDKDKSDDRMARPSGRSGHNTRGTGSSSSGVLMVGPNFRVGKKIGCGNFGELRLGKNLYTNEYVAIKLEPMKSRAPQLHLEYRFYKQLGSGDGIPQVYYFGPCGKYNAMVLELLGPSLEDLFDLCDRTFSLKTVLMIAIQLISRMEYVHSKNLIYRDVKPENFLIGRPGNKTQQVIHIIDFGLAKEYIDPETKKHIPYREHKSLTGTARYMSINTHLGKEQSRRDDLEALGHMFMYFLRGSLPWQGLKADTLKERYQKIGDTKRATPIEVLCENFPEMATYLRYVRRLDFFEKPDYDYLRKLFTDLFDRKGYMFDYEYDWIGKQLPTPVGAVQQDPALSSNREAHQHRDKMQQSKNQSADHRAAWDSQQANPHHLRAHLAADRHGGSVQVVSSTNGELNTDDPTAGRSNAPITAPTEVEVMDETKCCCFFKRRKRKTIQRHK

[3] = target: Ribosomal protein S6 kinase alpha-3 (Homo sapiens, UniProt P51812)
Sequence of Ribosomal protein S6 kinase alpha-3 (P51812 whole entry): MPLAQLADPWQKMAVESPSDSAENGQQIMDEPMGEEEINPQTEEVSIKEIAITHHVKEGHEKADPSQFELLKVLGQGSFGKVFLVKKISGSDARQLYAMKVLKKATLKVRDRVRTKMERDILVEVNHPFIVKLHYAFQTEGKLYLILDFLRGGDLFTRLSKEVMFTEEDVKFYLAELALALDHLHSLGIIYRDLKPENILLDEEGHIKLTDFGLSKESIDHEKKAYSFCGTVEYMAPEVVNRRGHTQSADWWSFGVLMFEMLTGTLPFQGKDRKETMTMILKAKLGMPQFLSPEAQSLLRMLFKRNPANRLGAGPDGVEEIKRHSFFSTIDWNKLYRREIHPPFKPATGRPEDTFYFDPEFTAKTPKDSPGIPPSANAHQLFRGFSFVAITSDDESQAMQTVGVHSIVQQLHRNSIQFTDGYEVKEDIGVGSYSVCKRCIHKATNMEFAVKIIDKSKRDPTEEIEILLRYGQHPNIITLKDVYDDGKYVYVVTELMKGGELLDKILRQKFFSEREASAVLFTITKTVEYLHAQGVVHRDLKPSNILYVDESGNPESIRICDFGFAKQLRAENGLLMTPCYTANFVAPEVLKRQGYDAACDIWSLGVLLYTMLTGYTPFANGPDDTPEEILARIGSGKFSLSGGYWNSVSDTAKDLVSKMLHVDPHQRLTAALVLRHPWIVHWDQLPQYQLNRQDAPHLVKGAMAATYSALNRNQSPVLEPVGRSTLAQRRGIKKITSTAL

[4] = system: NCI-H460; assay: NCI- H460 cell line Proliferation assay; format: functional, Homo sapiens; settings: time 3 day
[5] = target: Death-associated protein kinase 3 (Homo sapiens) (UniProt O43293); assay: ZIPK(h) Eurofins kinase panel; settings: Compound concentration 1.0 uM
Sequence of Death-associated protein kinase 3 (Homo sapiens) (O43293 whole entry, looked up): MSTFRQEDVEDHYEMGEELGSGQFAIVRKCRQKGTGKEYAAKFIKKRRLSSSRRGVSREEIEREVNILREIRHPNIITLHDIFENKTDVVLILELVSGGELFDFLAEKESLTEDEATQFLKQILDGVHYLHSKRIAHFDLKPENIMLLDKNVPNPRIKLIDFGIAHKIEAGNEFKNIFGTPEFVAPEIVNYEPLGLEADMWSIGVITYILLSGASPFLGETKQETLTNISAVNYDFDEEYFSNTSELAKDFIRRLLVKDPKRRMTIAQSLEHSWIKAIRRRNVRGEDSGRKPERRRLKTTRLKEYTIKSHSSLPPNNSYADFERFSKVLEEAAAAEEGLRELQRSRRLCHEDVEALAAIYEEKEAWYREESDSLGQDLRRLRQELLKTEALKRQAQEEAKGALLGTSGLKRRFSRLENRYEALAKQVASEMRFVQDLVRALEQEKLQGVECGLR

[6] = target: Glycogen synthase kinase-3 beta (Homo sapiens) (UniProt P49841); assay: GSK3β(h) Eurofins kinase panel; settings: Compound concentration 1.0 uM
Sequence of Glycogen synthase kinase-3 beta (Homo sapiens) (P49841 whole entry, looked up): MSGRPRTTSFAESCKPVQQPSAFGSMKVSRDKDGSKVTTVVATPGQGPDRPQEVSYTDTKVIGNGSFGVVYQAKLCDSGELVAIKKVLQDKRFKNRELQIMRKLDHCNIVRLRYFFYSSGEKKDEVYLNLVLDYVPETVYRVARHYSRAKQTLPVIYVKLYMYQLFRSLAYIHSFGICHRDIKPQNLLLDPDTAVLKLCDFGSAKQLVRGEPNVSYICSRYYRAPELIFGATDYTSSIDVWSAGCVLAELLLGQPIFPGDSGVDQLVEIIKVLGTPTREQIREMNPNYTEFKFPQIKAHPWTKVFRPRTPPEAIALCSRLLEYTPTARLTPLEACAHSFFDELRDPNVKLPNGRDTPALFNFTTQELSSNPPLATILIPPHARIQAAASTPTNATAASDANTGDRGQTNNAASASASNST

[7] = target: cAMP-dependent protein kinase catalytic subunit beta (Homo sapiens) (UniProt P22694); assay: PKAcβ(h) Eurofins kinase panel; settings: Compound concentration 1.0 uM
[8] = target: Ephrin type-A receptor 5 (Homo sapiens) (UniProt P54756); assay: EphA5(h) Eurofins kinase panel; settings: Compound concentration 1.0 uM
[9] = target: T2, Aurora kinase A (Homo sapiens) (UniProt O14965); assay: (§1) Aurora-A(h) Eurofins kinase panel; settings: Compound concentration 1.0 uM
T2 sequence (whole entry): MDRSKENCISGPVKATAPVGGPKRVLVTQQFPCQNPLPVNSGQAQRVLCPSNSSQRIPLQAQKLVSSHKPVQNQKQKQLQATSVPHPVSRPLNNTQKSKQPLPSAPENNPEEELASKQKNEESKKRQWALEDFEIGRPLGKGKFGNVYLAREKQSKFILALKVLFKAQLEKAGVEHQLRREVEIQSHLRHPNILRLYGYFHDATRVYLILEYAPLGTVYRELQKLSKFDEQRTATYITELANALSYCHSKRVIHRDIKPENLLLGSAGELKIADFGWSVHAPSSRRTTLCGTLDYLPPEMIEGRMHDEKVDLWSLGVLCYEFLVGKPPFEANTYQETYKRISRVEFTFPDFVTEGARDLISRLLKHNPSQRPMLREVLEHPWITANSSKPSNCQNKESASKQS

[10] = target: Aurora kinase A (Homo sapiens, UniProt O14965); assay: as §1
[11] = target: ALK tyrosine kinase receptor (Homo sapiens) (UniProt Q9UM73); assay: ALK(h) Eurofins kinase panel; settings: Compound concentration 1.0 uM
[12] = target: Calcium/calmodulin-dependent protein kinase type 1G (Homo sapiens) (UniProt Q96NX5); assay: CaMKIgamma(h) Eurofins kinase panel; settings: Compound concentration 1.0 uM
Sequence of Calcium/calmodulin-dependent protein kinase type 1G (Homo sapiens) (Q96NX5 whole entry): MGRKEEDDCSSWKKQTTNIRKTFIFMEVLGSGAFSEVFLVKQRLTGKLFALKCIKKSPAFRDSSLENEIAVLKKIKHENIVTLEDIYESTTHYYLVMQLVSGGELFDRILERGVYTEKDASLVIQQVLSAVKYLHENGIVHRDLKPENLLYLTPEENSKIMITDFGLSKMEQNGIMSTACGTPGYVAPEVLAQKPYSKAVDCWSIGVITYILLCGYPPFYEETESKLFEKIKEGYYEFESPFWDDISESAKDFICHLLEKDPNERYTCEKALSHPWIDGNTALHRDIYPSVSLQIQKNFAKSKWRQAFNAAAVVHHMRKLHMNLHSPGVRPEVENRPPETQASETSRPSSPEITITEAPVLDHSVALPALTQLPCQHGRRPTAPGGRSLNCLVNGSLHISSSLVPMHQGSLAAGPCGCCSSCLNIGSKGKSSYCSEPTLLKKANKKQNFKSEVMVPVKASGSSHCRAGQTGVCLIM

[13] = target: Mitogen-activated protein kinase kinase kinase 9 (Homo sapiens) (UniProt P80192); assay: MLK1(h) Eurofins kinase panel; settings: Compound concentration 1.0 uM
Sequence of Mitogen-activated protein kinase kinase kinase 9 (Homo sapiens) (P80192 whole entry, looked up): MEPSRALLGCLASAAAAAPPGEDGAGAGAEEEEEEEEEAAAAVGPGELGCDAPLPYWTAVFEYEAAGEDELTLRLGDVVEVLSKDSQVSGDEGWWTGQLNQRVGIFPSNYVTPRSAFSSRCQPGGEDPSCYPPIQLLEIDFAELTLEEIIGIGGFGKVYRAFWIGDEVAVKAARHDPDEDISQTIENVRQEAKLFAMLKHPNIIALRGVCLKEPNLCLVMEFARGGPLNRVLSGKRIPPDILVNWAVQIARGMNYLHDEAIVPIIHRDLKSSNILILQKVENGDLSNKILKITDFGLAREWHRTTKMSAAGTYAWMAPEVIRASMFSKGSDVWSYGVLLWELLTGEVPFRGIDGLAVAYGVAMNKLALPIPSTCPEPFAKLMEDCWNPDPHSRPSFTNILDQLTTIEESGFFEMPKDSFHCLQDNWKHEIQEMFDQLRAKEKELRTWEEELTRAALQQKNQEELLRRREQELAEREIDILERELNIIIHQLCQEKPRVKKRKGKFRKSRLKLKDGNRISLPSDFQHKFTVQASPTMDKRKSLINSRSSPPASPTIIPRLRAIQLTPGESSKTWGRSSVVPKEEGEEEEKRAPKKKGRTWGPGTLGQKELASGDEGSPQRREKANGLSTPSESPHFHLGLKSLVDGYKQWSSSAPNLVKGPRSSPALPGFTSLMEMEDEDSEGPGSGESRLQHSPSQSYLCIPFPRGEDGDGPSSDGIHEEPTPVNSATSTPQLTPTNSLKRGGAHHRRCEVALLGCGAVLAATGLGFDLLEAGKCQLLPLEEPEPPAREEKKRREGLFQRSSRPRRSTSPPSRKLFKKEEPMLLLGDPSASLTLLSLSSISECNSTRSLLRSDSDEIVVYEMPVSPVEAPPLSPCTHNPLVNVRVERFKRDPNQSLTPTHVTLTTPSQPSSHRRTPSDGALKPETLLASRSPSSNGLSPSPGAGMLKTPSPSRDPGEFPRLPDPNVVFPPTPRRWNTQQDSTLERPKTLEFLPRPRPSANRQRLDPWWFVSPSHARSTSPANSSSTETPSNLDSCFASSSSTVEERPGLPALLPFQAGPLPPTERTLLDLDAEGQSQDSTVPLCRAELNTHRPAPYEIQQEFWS

[14] = system: PC-3; assay: PC-3 cell line Proliferation assay; format: functional, Homo sapiens; settings: time 6 day
[15] = target: Tyrosine-protein kinase HCK (Homo sapiens) (UniProt P08631); assay: Hck(h) Eurofins kinase panel; settings: Compound concentration 1.0 uM
Sequence of Tyrosine-protein kinase HCK (Homo sapiens) (P08631 2-526 limits assumed): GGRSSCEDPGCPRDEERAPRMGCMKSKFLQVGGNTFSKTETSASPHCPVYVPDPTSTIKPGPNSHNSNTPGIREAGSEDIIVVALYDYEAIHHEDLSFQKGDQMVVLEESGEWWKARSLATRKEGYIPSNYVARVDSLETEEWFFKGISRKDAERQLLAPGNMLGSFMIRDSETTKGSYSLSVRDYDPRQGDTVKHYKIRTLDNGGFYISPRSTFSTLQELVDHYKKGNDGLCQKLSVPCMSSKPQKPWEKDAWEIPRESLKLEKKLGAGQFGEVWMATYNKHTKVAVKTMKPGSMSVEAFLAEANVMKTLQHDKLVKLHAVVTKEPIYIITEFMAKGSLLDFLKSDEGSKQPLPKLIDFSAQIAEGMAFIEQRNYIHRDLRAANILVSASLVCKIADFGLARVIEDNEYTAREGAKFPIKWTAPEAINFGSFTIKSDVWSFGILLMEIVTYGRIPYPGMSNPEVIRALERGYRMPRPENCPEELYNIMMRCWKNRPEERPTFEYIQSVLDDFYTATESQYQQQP

[16] = system: U2OS; assay: U2-OS cell line Proliferation assay; format: functional, Homo sapiens; settings: time 3 day
[17] = target: T3, cGMP-dependent protein kinase 1 (Homo sapiens) (UniProt Q13976); assay: PKG1beta (h) Eurofins kinase panel; settings: Compound concentration 1.0 uM
T3 sequence (whole entry): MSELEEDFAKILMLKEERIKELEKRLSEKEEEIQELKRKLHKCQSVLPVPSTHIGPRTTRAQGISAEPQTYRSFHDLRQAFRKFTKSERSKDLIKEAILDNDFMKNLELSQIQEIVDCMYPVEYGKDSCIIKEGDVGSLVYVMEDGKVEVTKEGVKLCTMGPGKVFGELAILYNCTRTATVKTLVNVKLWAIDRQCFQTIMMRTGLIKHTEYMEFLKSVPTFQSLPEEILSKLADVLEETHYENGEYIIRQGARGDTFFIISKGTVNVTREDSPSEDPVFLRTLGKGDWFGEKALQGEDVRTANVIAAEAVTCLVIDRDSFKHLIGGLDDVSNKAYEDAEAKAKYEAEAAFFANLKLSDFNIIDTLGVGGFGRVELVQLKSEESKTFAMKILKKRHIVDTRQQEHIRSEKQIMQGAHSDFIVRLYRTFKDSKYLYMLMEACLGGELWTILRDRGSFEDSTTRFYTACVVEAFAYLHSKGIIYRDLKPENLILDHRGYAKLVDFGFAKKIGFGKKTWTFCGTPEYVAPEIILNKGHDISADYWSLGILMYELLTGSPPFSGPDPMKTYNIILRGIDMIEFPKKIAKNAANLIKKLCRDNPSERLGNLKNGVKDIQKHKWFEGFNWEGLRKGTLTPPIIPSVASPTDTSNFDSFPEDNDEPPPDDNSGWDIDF

**Q.** Which % residual kinase activity [1] does the source give for `CCc1ccccc1C(=O)Nc1n[nH]c2c(C)c(F)c(C3C(C#N)=C(C)N(C)C(C)=C3C#N)cc12` [BAY-3827] here?
**A.** The % residual kinase activity was 98%.

**Q.** What about the % residual kinase activity [2] of the same compound?
**A.** Its % residual kinase activity is 105%.

**Q.** What about the IC50 [3] of the same compound?
**A.** Its IC50 is 52 nM.

**Q.** What about the “Cell Proliferation IC50” value [4] of the same compound?
**A.** The value was greater than 33000 nM.

**Q.** What about the % residual kinase activity [5] of the same compound?
**A.** Its % residual kinase activity is 91%.

**Q.** What about the % residual kinase activity [6] of the same compound?
**A.** Its % residual kinase activity is 58%.

**Q.** What about the % residual kinase activity [7] of the same compound?
**A.** The % residual kinase activity was 90%.

**Q.** And the % residual kinase activity [8]?
**A.** Its % residual kinase activity is 89%.

**Q.** And the % residual kinase activity [9]?
**A.** The % residual kinase activity was 34%.

**Q.** What about the IC50 [10] of the same compound?
**A.** Its IC50 is 480 nM.

**Q.** And the % residual kinase activity [11]?
**A.** Its % residual kinase activity is 103%.

**Q.** And the % residual kinase activity [12]?
**A.** Its % residual kinase activity is 92%.

**Q.** And the % residual kinase activity [13]?
**A.** The % residual kinase activity was 93%.

**Q.** What about the “Cell Proliferation IC50” value [14] of the same compound?
**A.** Its value is greater than 10000 nM.

**Q.** And the % residual kinase activity [15]?
**A.** The % residual kinase activity was 88%.

**Q.** What about the “Cell Proliferation IC50” value [16] of the same compound?
**A.** The value was 18700 nM.

**Q.** What about the % residual kinase activity [17] of the same compound?
**A.** Its % residual kinase activity is 78%.
